Data on four compounds can be found in paper PMC11120408 (Foods, 2024).

The structures appear in SMILES notation. Like-named read-outs stand apart in the source and are kept apart here.

Data set [1] addresses T1, α-glucosidase (α-Glu) (Saccharomyces cerevisiae, UniProt P53341).
T1 construct: purchased Shanghai Yuanye Bio-Technology Co., Ltd
Put plainly: biochemical. Particulars: Cα-Glu = 0.10 U/mL, CpNPG = 2.08 mM, pH 6.8, 310 K; read-out: IC50 against α-Glu. As to the method:
The stock solutions (2.0 mM) of AK/MS were prepared by dissolving them in dimethyl sulfoxide, respectively. […] The inhibitory activities of AK/MS against α-Glu were assessed in vitro according to the previous method with a slight modification. Firstly, 50 μL of α-Glu and different doses of inhibitors were mixed for 1 h at 310 K. Fifty microliter of pNPG (5.0 mM) was then put in to activate the reaction. After a 30 min incubation, the Na2CO3 solution (0.2 M, 100 μL) was added to stop the reaction. The absorbance of p-nitrophenol converted from pNPG was monitored at 405 nm on an Infinite® M200 PRO plate reader (Tecan, Durham, NC, USA).

The target in data set [2] is T1, α-glucosidase (α-Glu). Put plainly: biochemical. The data set is classed as biochemical. Particulars: for inhibition mode against α-Glu: L-B plots; for Ki: read-out: Ki (inhibition constant, binding to enzyme); for reversibility of inhibition: plots of v vs α-Glu concentration. As to the method: The same procedure in Section 2.2.1 was used to investigate the inhibition mechanisms of AK and MS against α-Glu. Using the Michaelis–Menten equation, inhibitors with various concentrations were utilized to evaluate the kinetic parameters (Km and Vmax). Moreover, the values of two kinetic constants Ki and Kis were determined using the Lineweaver–Burk (L-B) plots. The L-B equation could be expressed in a double reciprocal form for the mixed-type inhibition mechanism analysis:(1) 1/v=Km/Vmax1+I/Ki1/S+1/Vmax1+I/Kis
Km and Vmax denote the Michaelis–Menten constant and the maximum reaction velocity, respectively. [I] and [S] are the concentrations of the inhibitor and substrate, respectively. Ki and Kis represent the inhibition constants to bind with the enzyme and the enzyme–substrate complex, respectively. The secondary plots of the Y-intercept versus [I] are linearly fitted.

Data set [3] addresses T1, α-glucosidase (α-Glu). Put plainly: Fluorescence quenching / binding of AK/MS to α-Glu. To be noted: for Kq (quenching rate constant): Ksv/τ0; for Kd: read-out: Ka (binding constant) (converted); for fluorescence quenching mechanism: Stern–Volmer analysis; for ΔH^0 / ΔS^0: van't Hoff, 298–310 K; for decrease of synchronous fluorescence intensity of α-Glu: Δλ = 60 nm (Trp); for reduction of three-dimensional fluorescence intensity of Peak 1 of α-Glu: α-Glu 2.0 μM, inhibitor 13.0 μM. As to the method: The fluorescence spectrum of α-Glu was acquired in the spectral region of 300–450 nm on an F97 Pro spectrofluorometer (Lengguang Tech., Shanghai, China) with both excitation and emission slits of 10 nm, when excited at 280 nm. The solution of α-Glu (2.0 μM) was titrated by successively adding different amounts of AK (final concentrations of 4.0, 8.0, 12.0, 16.0, 20.0, 24.0 and 28.0 μM, respectively) or MS (final concentrations of 1.0, 3.0, 5.0, 7.0, 9.0, 11.0 and 13.0 μM, respectively) at 298, 304, and 310 K.
The synchronous fluorescence spectrum was recorded from 270 to 330 nm, when the interval of the emission and excitation wavelength (Δλ = λem − λex) constant was fixed at 15 and 60 nm, respectively.
The three-dimensional fluorescence spectra of α-Glu with or without AK/MS were measured at 298 K. The excitation wavelength range was from 200 to 360 nm, and the emission was collected from 270 to 330 nm, together with an increment of 10 nm. The final concentrations of α-Glu, AK, and MS were 2.0, 13.0, and 13.0 μM, respectively.
All the samples were thoroughly mixed and kept for 6 min before detection, and the inner-filter effect was eliminated to correct the obtained fluorescence data, referring to our previous report.
Thus, the relative mechanism was investigated through the Stern–Volmer equation:(6) F0/F=1+Ksv[Q]=1+kqτ0[Q] where F0 and F are the fluorescence intensities of α-Glu without and with inhibitors, respectively. Ksv, [Q], kq, and τ0 represent the Stern–Volmer quenching constant, the concentration of inhibitor, the biomolecule quenching rate constant, and the average lifetime of protein in the absence of inhibitors, respectively. Specifically, Ksv is determined by the plot of F0/F against [Q], τ0 is about 10^−8 s, and kq is equal to Ksv/τ0.
The binding constants (Ka) of the α-Glu-AK and α-Glu-MS systems were evaluated by the following equation:(7) logF0−F/F=nlogKa−nlog1/[Qt]−(F0−F)[Pt]/F0 where [Pt] and [Qt] represent the total concentrations of α-Glu and the inhibitor, respectively. n is the number of binding sites.
To better reveal the binding mechanism of AK/MS to α-Glu, the critical forces between them were also explored. Typically, the binding forces between proteins and ligands could be estimated by the calculation of the thermodynamic parameters using the following equations:(8) logKa=−ΔH^0/2.303RT+ΔS^0/2.303R (9) ΔG^0=ΔH^0−TΔS^0 where T represents the absolute temperature (in Kelvin), and R is the universal gas constant (8.314 J mol^−1 K^−1). ΔH^0 and ΔS^0 stand for the enthalpy change and entropy change, respectively, and they could be calculated by the slope and the y-axis intercept in the linearly fitted plot between lnKa and 1/T (Figure S4A,B). Then, the free energy change (ΔG^0) is obtained according to Equation (9).

Data set [4] in a line: Solubility and light sensitivity (statement, no method).
The subject of data set [5] is α-Glu. Particulars: read-out: IC50 against α-Glu, cited from earlier work.
Where [6] appears, read: mixed-type, L-B secondary plots.

T1 sequence (P53341 whole entry): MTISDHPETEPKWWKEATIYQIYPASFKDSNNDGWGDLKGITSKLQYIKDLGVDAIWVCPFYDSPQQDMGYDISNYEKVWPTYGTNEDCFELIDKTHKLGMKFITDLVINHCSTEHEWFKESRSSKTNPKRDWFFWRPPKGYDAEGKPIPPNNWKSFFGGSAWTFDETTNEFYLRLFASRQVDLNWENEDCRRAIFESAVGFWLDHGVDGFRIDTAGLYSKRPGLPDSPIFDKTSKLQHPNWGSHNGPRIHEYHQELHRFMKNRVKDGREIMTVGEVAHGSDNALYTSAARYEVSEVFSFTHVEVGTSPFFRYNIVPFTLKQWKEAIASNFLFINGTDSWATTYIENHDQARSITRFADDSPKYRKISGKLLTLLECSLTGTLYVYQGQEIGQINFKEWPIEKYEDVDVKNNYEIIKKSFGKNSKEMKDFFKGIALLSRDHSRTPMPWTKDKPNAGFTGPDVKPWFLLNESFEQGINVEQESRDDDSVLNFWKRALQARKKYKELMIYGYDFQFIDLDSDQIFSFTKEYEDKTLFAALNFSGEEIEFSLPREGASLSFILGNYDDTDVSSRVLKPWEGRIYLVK

As for `C/C=C/C1=CC2=C(CO1)C(=O)[C@]1(C)OC(=O)[C@H](C(=O)CCCCCCC)[C@H]1C2` [AK, ankaflavin], the concentration for half-maximal inhibition (IC50) in data set [1] was found to be 127 ± 2.5 µM. In data set [2], the “inhibition mode against α-Glu” value is on record as “mixed type” and the reversibility of inhibition entry is reported as “reversible inhibitors”. Besides, the “Vmax of α-Glu” value in data set [2] (inhibitor 30 μM) was 4.02 ± 0.07 µM/min. Also, the “Vmax of α-Glu” value in data set [2] (inhibitor 40 μM) amounted to 3.86 ± 0.04 µM/min. In addition, in data set [2] (setting [6]), the “Kis (inhibition constant, binding to enzyme–substrate complex)” value was determined as 3.45 ± 0.06 µM and the Ki was found to be 57.8 ± 5.89 µM. Also, in data set [3] (298 K), the “Ksv (Stern–Volmer quenching constant)” value is 2.23 ± 0.12 10^4 M^−1, the “Kq (quenching rate constant)” value is recorded as 2.23 ± 0.12 10^12 M^−1s^−1, the Kd was 58.1 µM and the “reduction of three-dimensional fluorescence intensity of Peak 1 of α-Glu” value stood at 24.9%. For the same compound, in data set [3] (304 K), the “Ksv (Stern–Volmer quenching constant)” value was 2.08 ± 0.07 10^4 M^−1, the “ΔG^0” value is -10.41 ± 0.34 kJ/mol, the “Kq (quenching rate constant)” value is reported as 2.08 ± 0.07 10^12 M^−1s^−1 and the Kd was 63.3 µM. Further, in data set [3] (310 K), the “Ksv (Stern–Volmer quenching constant)” value is 1.91 ± 0.08 10^4 M^−1, the “ΔG^0” value was -10.54 ± 0.22 kJ/mol, the “Kq (quenching rate constant)” value is listed as 1.91 ± 0.08 10^12 M^−1s^−1 and the Kd was 69.4 µM. For the same compound, in data set [3], the fluorescence quenching mechanism result is “static quenching”, the “ΔH^0” value was -3.52 ± 0.02 kJ/mol, the “ΔS^0” value is 22.66 ± 0.84 J mol^−1K^−1 and the “decrease of synchronous fluorescence intensity of α-Glu” value was found to be 59.4%.

On to `C/C=C/C1=CC2=C(CO1)C(=O)[C@]1(C)OC(=O)[C@H](C(=O)CCCCC)[C@H]1C2` [MS, monascin], for which the half-inhibitory concentration (IC50) in data set [1] stood at 302.6 ± 2.5 µM. Besides, in data set [2], the “inhibition mode against α-Glu” value is “mixed type” and the reversibility of inhibition result was “reversible inhibitors”. In data set [2] (inhibitor 100 μM), the “Vmax of α-Glu” value came out at 1.85 ± 0.04 µM/min. In addition, in data set [2] (inhibitor 200 μM), the “Vmax of α-Glu” value amounted to 1.76 ± 0.08 µM/min. Also, in data set [2] (setting [6]), the Ki was determined as 298 ± 18.1 µM. Besides, in data set [3] (298 K), the “Ksv (Stern–Volmer quenching constant)” value was 2.09 ± 0.02 10^4 M^−1, the “Kq (quenching rate constant)” value is on record as 2.09 ± 0.02 10^12 M^−1s^−1, the Kd is 70.9 µM and the “reduction of three-dimensional fluorescence intensity of Peak 1 of α-Glu” value worked out at 20.0%. Moreover, in data set [3] (304 K), the “Ksv (Stern–Volmer quenching constant)” value is listed as 1.94 ± 0.04 10^4 M^−1, the “ΔG^0” value is -10.61 ± 0.02 kJ/mol, the “Kq (quenching rate constant)” value is recorded as 1.94 ± 0.04 10^12 M^−1s^−1 and the Kd was 76.3 µM. Moreover, in data set [3] (310 K), the “Ksv (Stern–Volmer quenching constant)” value is reported as 1.58 ± 0.03 10^4 M^−1, the “ΔG^0” value is -10.72 ± 0.03 kJ/mol, the “Kq (quenching rate constant)” value is 1.58 ± 0.03 10^12 M^−1s^−1 and the Kd is 80.6 µM. In data set [3], the fluorescence quenching mechanism result is reported as “static quenching”, the “ΔH^0” value is -4.93 ± 0.10 kJ/mol, the “ΔS^0” value came out at 18.68 ± 3.20 J mol^−1K^−1 and the “decrease of synchronous fluorescence intensity of α-Glu” value stood at 33.9%. Further, in data set [4], the sensitivity to light entry is reported as “sensitive to light” and the solubility entry is “poor”.

For `C[C@H]1O[C@H](O[C@H]2[C@H](O)[C@@H](O)[C@@H](O[C@H]3[C@H](O)[C@@H](O)C(O)O[C@@H]3CO)O[C@@H]2CO)[C@H](O)[C@@H](O)[C@@H]1N[C@H]1C=C(CO)[C@@H](O)[C@H](O)[C@H]1O` (stereo partly shown) [acarbose], the IC50 in data set [5] (previous work) is 376 ± 4.4 µM.

For `O=c1cc(-c2ccc(O)cc2)oc2cc(O)cc(O)c12` [apigenin], the IC50 in data set [5] was 10.5 ± 0.05 µM.
